What was measured:
[1] = system: patients with uncomplicated acute bronchitis; settings: cited from earlier work; for Adverse events: P=0.008; for median number of days with cough: oral, placebo 11 days, not statistically significant
clinical = settings: both, human, in vivo, po, 800 mg

| Cmax (clinical) | Tmax (clinical) | AUC (clinical; AUC0^t) | AUC (clinical; AUC0^∞) | SMILES | Adverse events [1] | median number of days with cough [1] |
| --- | --- | --- | --- | --- | --- | --- |
| 54.6 µg/mL | 1.35 ± 0.75 h | 185 µg·h/mL | 192 µg·h/mL | CC(C)Cc1ccc(C(C)C(=O)O)cc1 (racemic) [Ibuprofen, (±)-2-(4-isobutylphenyl) propionic acid] | 5% | 9 days |
|  |  |  |  | CC1(C)S[C@@H]2[C@H](NC(=O)[C@H](N)c3ccc(O)cc3)C(=O)N2[C@H]1C(=O)O [amoxicillin] | 12% | 11 days |

From patent US20240000734A1, “PHARMACEUTICAL COMPOSITION HAVING AN ANALGAESIC AND AN ANTIHISTAMINE FOR TREATING RESPIRATORY DISEASES” (LABORATORIOS SILANES S.A. DE C.V., priority 2020, published 2024)
